Columns and labels:
LC3B in A549 cells = assay: Immunofluorescence staining for LC3B; type: cell-based, human; conditions: A549, JH62 over 2–24 h
Excerpt: We next investigated whether autophagy contributes to JH62-induced cell death.

[1] = system: MCF7: human breast cancer cell lines; assay: WST-1 cell viability, MCF7; type: cell-based; conditions: MCF7 (breast) cancer cell line
Excerpt: (§1) Different cells were utilized as follows: MEF: murine embryonic fibroblast (RRID: CVCL_L690); AML12: mouse liver cell lines (RRID: CVCL_0140); WI-38: human lung fibroblast cell lines (RRID: CVCL_0579); THLE-2: human liver epithelial cell lines (RRID: CVCL_3803); A549: human lung cancer cell lines (RRID: CVCL_0023); HEPG2: human liver cancer cell lines (RRID: CVCL_0027); HEP3B: human hepatoma cell lines (RRID: CVCL_0326); BxPC3: human pancreatic cancer cell lines (RRID: CVCL_0186); U87: human primary glioblastoma cell lines (RRID: CVCL_0022); DU145: human prostate cancer cell lines (RRID: CVCL_0105); MCF7: human breast cancer cell lines (RRID: CVCL_0031); HeLa: human cervical cancer cell lines (RRID: CVCL_0030); HCT116: human colon cancer cell lines (RRID: CVCL_0291). Cells were maintained in Dulbecco’s modified Eagle’s medium (DMEM, Gibco) supplemented with L-glutamine (Lonza) (2 mM), 10% fetal bovine serum (FBS, Hyclone), 1 × non-essential amino acids, and sodium pyruvate (1 mM). THLE-2 cells were maintained in THLE-2 Cell Complete Medium (Zhong Qiao Xin Zhou, Shanghai, China). Cells were incubated at 37 °C in a humidified incubator with 5% CO2. […]
(§2) Cell viability was assessed using the WST-1 assay, based on a previously reported method with slight modifications. […] Absorbance at OD450 was measured using a microplate reader (Synergy H1; BioTek Instruments, Winooski, VT, USA).

A549 cells [2] = assay: Chromosome staining experiment; type: cell-based, human; conditions: A549, 5 μM DOX or 25 μM JH62 for 6 h
Method: Metaphase chromosome spreads were prepared from A549 cells. Briefly, A549 cells were cultured. After treatment with JH62 or DOX, cells were incubated with Colcemid (Gibco BRL; 0.2 μg/mL final concentration) for 2 h to arrest cells in metaphase. Cells were then subjected to hypotonic treatment in KCl (0.075 M) at 37 °C for 5 min, and fixed by repeated washing with ice-cold freshly prepared 3:1 (vol/vol) methanol:acetic acid. Chromosome spreads were prepared on premarked glass slides using the “drop-cryo” protocol. The chromosome suspension was dropped onto a slide. This was followed by adding three drops of 45% acetic acid and placing a coverslip over the suspension. The slide was then inverted and placed on dry ice for 15 min. The spreads were postfixed in 2.5% glutaraldehyde in cacodylate buffer (pH 7.4, 75 mM) for 15 min and washed with cacodylate buffer (0.1 M). The chromosomes were stained with Vista Green DNA dye (Cell Biolabs, Singapore). After staining, the preparations were washed in water for 5, 10, and 15 min, then dehydrated using a series of ethanol solutions as follows: 5 min in a 70% solution, 10 min in an 85% solution, and 15 min in 100% ethanol. Finally, slides were mounted with a permanent mounting medium, sealed, and analyzed by microscopy.

[3] = system: HeLa: human cervical cancer cell lines; assay: WST-1 cell viability, HeLa; type: cell-based; conditions: HeLa (cervical) cancer cell line
Excerpt: as §1, §2

A549 cells [4] = assay: Mitochondria JC-1 staining (mitochondrial membrane potential); type: cell-based, human; conditions: A549, 25 μM, red fluorescence decreasing within 2–3 h, lowest by 4 h
Method: Mitochondrial membrane potential and mitochondria localization were assessed by JC-1 and MitoTracker staining based on previously published methods. A549 cells were cultured at 37 °C and 5% CO2 in Dulbecco’s modified Eagle’s medium (DMEM), supplemented with 10% heat-inactivated FBS (Thermo Fisher Scientific, Waltham, MA, USA) and L-Glutamine (Thermo Fisher Scientific, Waltham, MA, USA) (2 mM). An aliquot of 1 mL of JH62 (25 μM) solution was added to the cell cultures. […] Cells were washed with dilution buffer, and photos were taken using a microscope. For MitoTracker staining, cells grown on 12 mm diameter round glass coverslips in 24-well plates were incubated with MitoTracker Red diluted 1:2000 or 1:20,000 from a stock solution (1 mM) in culture medium for 45 min at 37 °C. Cells were then washed with PBS and fixed with ice-cold 3.2% paraformaldehyde in PBS for 20 min at room temperature. After washing, coverslips were mounted on glass slides using an appropriate mounting medium. […]
In cancer cells, mitochondria serve as central organelles for energy production and survival, critically influencing cell viability, immune evasion, tumor progression, and therapy resistance. […] We used the potential-sensitive fluorescent probe JC-1, which emits green fluorescence as a monomer at low concentrations and forms red-fluorescent aggregates in mitochondria with intact ΔΨm.

[5] = system: MEF: murine embryonic fibroblast; assay: WST-1 cell viability, MEF; type: cell-based; conditions: Mus musculus, non-cancer cell line
Excerpt: as §1, §2

[6] = system: BxPC3: human pancreatic cancer cell lines; assay: WST-1 cell viability, BxPC3; type: cell-based; conditions: BXPC-3, BxPC3 (pancreatic) cancer cell line
Excerpt: as §1, §2

cancer cell lines = assay: WST-1 cell viability, panel of cancer cell lines; type: cell-based; conditions: Homo sapiens; across the tested cancer cell lines
Method: (§3) Cell viability was assessed using the WST-1 assay, based on a previously reported method with slight modifications. Briefly, cells were seeded at 1 × 10^4 cells per well in 96-well plates and then treated with different doses of JH62 or DOX for 0–72 h. The cells used included non-cancer cells (MEF, AML12, WI-38, and THLE-2) and cancer cells (A549, HEPG2, HEP3B, BxPC3, U87, DU145, MCF7, HeLa, and HCT116). The WST-1 reagent (Roche, Shanghai, China) was added to each well (10% vol/vol final concentration), followed by incubation for 3 h at 37 °C. Absorbance at OD450 was measured using a microplate reader (Synergy H1; BioTek Instruments, Winooski, VT, USA).

[7] = system: non-cancer cells (MEF, AML12, WI-38, and THLE-2); assay: WST-1 cell viability, panel of non-cancer cells; type: cell-based; conditions: across non-cancer cells (MEF, AML12, WI-38, and THLE-2)
Method: as §3

[8] = system: pqs gene cluster in ΔpqsA mutant strain; assay: Effect of exogenous JH62 on transcription of the pqs gene cluster; type: cell-based, Pseudomonas aeruginosa; conditions: ΔpqsA mutant supplemented with exogenous JH62
Excerpt: Since the pqs gene cluster is responsible for JH62 biosynthesis, we determined whether JH62 itself could regulate the expression of this cluster, potentially establishing a feedback loop. To this end, we supplemented the JH62-deficient ΔpqsA mutant with exogenous JH62 and assessed the pqs cluster transcription.

**Q.** For `CCCCCCCC/C=C/CCCc1cc(=O)c2ccccc2[nH]1` [JH62, E-2-(tridec-4-en-1-yl)-quinolin-4(1H)-one], which “LC3B puncta (autophagosome formation)” value (LC3B in A549 cells) is on record?
**A.** progressively increased both the intensity and number of LC3B puncta

**Q.** What about the IC50 [1] of the same molecule?
**A.** 13.9 ± 1.3 µM

**Q.** And the chromosome morphology (A549 cells [2])?
**A.** maintained normal morphology similar to the control

**Q.** What about the IC50 [3] of the same molecule?
**A.** 13.6 ± 2.7 µM

**Q.** What about the “mitochondrial membrane potential (JC-1 red fluorescence)” value (A549 cells [4]) of the same molecule?
**A.** disrupted the mitochondrial membrane potential

**Q.** And the IC50 [5]?
**A.** 47.2 ± 4.8 µM

**Q.** What about the IC50 [6] of the same molecule?
**A.** 15 ± 0.4 µM

**Q.** And the IC50 (cancer cell lines)?
**A.** < 20 µM

**Q.** What about the IC50 [7] of the same molecule?
**A.** > 25 µM

**Q.** What about the pqsH transcription [8] of the same molecule?
**A.** unaffected

**Q.** And the “transcription of pqsA, pqsB, pqsC, pqsD, and pqsE” value [8]?
**A.** markedly upregulated

Source: PMC12844237, “A Novel Quinolone JH62 (E-2-(Tridec-4-en-1-yl)-quinolin-4(1H)-one) from Pseudomonas aeruginosa Exhibits Potent Anticancer Activity” (Microorganisms, 2025)
